In patent US20190167676A1, “METHODS FOR IMPROVING RESISTANCE TO SKELETAL MUSCLE FATIGUE” (Cytokinetics, Inc., priority 2012, published 2019):

Key:
rat EDL muscle [1] = assay: Isometric tension and relaxation time in rat EDL muscle in situ; assay type: in vivo
Description: As with the in vitro FDB muscle studies, another predominately fast muscle fiber type, the extensor digitorum long us (EDL), was stimulated toward contractions in unconscious rats in situ. In these isometric muscle studies (measuring force at fixed length), force, time to peak contraction, time to half relaxation after cessation of stimulation (RT1/2) and baseline tension were determined. These studies have the advantage that the nerve and muscle pair were intact and had typical blood flow to the muscle under investigation.
(§1) Rats were placed under anesthesia using isoflurane and the skin around the experimental leg was removed. The distal end of the EDL muscle and its associated tendon were then isolated. The rat was then placed on the platform of an Aurora in-situ muscle analysis rig (806C), maintained at body temperature via a circulating water system. The knee was immobilized in a clamp between two sharpened screws and the distal tendon cut and tied to the arm of a force transducer (Aurora Scientific, Ontario, Canada) using a silk suture. The muscle was stimulated directly via the peroneal nerve. […] Muscle contractile properties were assessed by applying an electrical current to the nerve and recording the force generated by the muscle via a servomotor. […]

rat EDL muscle [2] = assay: Fatigue in rat EDL muscle in situ; assay type: in vivo
Excerpt: as §1, with “nerve. For isolation of the nerve, a 1 cm incision was made at the upper thigh and the overlying gastrocnemius muscle was cut to expose an approximate 5 mm stretch of the peroneal nerve.” for “nerve.”
With the rat in situ EDL muscle preparation described in Example 3, a fatiguing protocol was utilized where muscle was stimulated for 600 seconds. […] To elicit muscle fatigue, the EDL muscle was stimulated with 350 msec electrical trains every 3 seconds for ten minutes at a frequency producing an initial force equal to 50% of maximal (FMax50) as determined by the force-frequency relationship for each animal.

healthy female rats = assay: Cage grid hang time; assay type: in vivo, rat
Description: Static fatigue in conscious rats was assessed by measuring the length of time that healthy female rats would hang upside down from a cage grid. Rats were trained to hang upside-down from a cage grid and the time to drop to soft padding below was recorded. Baseline hang-times were recorded for each animal (n=24) for a two week period of time. The rats were then treated with Compound A (200 ppm) in chow for two weeks while hang times were monitored daily. Finally, the rats were withdrawn from Compound A in their chow for five days while hang times were recorded daily.

healthy rats [3] = assay: Treadmill running assay; assay type: in vivo, rat
Description: Male Sprague Dawley rats (Charles River), 10-12 weeks old, 250-400 g. Rats were acclimated for a minimum of 2 days and weight was measured weekly. The endurance capacity of rats was assessed using a progressive exercise test as previously described (A. Aaker et al. J Cardiovasc Pharmacol28: 353-362, 1996; B. Helwig et al. J Appl Physiol. 2003 June; 94(6):2225-36). After familiarization with the treadmill apparatus, rats were run at a treadmill speed of 30 meters per minute (m/min) with a 5% incline. Every 15 minutes, the treadmill speed was increased by 5 meters per minute and the rats continued to exercise until they reached the point of fatigue and were unable to continue exercising (FIG. 1A). Exercise time was measured in minutes while exercise distance was recorded in meters. Compound A was administered via oral gavage 2 hours prior to assessment. Each dose was formulated as a suspension containing 1% hydroxypropyl methylcellulose (HPMC), 0.2% Tween 80, and micronized Compound A, and dose volume was 5 ml/kg. Vehicle (0.2% Tween 80, 1% HPMC and water) was administered similarly.

[4] = Plasma concentrations, Phase II study; assay type: in vivo, human
healthy rats [5] = assay: Fatigue-rotarod running time test; assay type: in vivo, rat; conditions: between 0.3 mg/kg and 100 mg/kg, FIG. 16
Description: The effect of the fast skeletal muscle troponin activator 1-(2-(((trans)-3-fluoro-1-(3-fluoropyridin-2-yl)cyclobutyl)methylamino)pyrimidin-5-yl)-1H-pyrrole-3-carboxamide (Compound C) on muscle fatigue in healthy rats was determined by a rotarod running time test. Compound C was administered to test rats at the doses between 0.3 mg/kg and 100 mg/kg (˜70 nM-28 μM). On the day of the assessment, the animals began by running at an increasing speed from 14-16 RPM over 5 minutes. Rats were then run at a constantly accelerating rate from 12 RPM to 25 RPM over the course of 10 minutes. Time to fall was recorded, with the test being terminated at 600 seconds. The plasma levels were determined at the end of the experiments (not at Cmax). The plasma levels for the indicated doses were determined to be the following: […]

[6] = biological target: T1, myofibrils from slow skeletal muscle (Homo sapiens, UniProt P63316); conditions: cited from earlier work
T1 construct: from tissue; host or cells: slow skeletal muscle myofibrils

[7] = 200 ppm in chow, average final three days of two week dosing
[8] = after withdrawal, average final three days of five day period
[9] = 10 mg/kg oral gavage 2 hours prior
[10] = 20 mg/kg oral gavage 2 hours prior

## C#Cc1cnc2nc(O)n(C(CC)CC)c2n1 [Compound A, 6-ethynyl-1-(pentan-3-yl)-1H-imidazo[4,5-b]pyrazin-2-ol]
Rat EDL muscle [1]; 10 mg/kg
  increase in relaxation time: approximately 3.5 fold
Rat EDL muscle [1]; femoral artery catheter, dose escalation up to 10 mg/Kg
  sub-maximal and maximal force in situ: increase in sub-maximal force without increasing maximal force
Rat EDL muscle [2]; 1 mg/kg via duodenal cannula, vehicle 30 Hz
  average stimulation frequency for force production similar to pre-dose: approximately 26 Hz
Rat EDL muscle [2]; 1 mg/kg, 600 seconds protocol, FIG. 4
  EDL muscle fatigue: decreased rat EDL muscle fatigue in situ
Healthy female rats; [7]
  grid hang time: 899 ± 157 s
  grid hang time compared to baseline: 160±18%
Healthy female rats; [8]
  grid hang time: 698 ± 122 s
  grid hang time, normalized performance: 124±12%
Healthy rats [3]; [9]
  Distance (m) Mean ± SEM: 1972 ± 176 m
  Time (Min) Mean ± SEM: 60.7 ± 4.2 min
Healthy rats [3]; [10]
  Distance (m) Mean ± SEM: 1943 ± 205 m
  Time (Min) Mean ± SEM: 59.4 ± 4.7 min
Healthy rats [3]; 10 and 20 mg/kg
  increase in treadmill running time over baseline: 20%
  increase in treadmill running time over vehicle control: 50%
[4]; 375, 500, 750 mg single doses
  mean plasma concentrations vs dose: relatively dose proportional increases
[4]; even at the 375 mg dose
  mean plasma concentrations over 24-hour observation period: remained within the pharmacologically active range
Healthy rats [5]
  running time vs vehicle controls: significant increases
[6]
  effect in myofibrils: little or no effect
